# Article PMC10244169, “Psychedelics promote plasticity by directly binding to BDNF receptor TrkB” (Nature Neuroscience, 2023)
# Assays:
# [1] = system: dendritic arbor complexity of neuronal cultures; test: Dendritogenesis (Sholl analysis) in neuronal cultures (WT and Y433F^+/−); type: cell-based, mouse; conditions: second 6h table (N as Y433F)
# Outline: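 Some cultures were pretreated 10 min with TrkB.FC (200 ng ml^−1) or M100907 (100 nM), which stayed in the medium alongside cumulative psychedelic doses. Sholl analysis counted dendritic intersections every 5 μm from the soma.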
# mice = test: Head-twitch response; type: in vivo, mouse; design: key to Mean, figure 7c (head-twitch response) / Mean Diff., figure 7d, Vehicle:Saline vs. Vehicle:LSD / Mean Diff., figure 7d, Vehicle:Saline vs. M100907:Saline / Mean Diff., figure 7d, M100907:Saline vs. M100907:LSD / Mean, figure 7d (head-twitch response) / Mean Diff., figure 7c, WT:Saline vs. WT:LSD / Head-twitch response, Mean: head twitch counts (scored every 2 min over 30 min); conditions: for Mean, figure 7c (head-twitch response): LSD group
# Experimental: Immediately after the last injection, the animals were placed inside a transparent chamber and their activity video-recorded for 30 min. Similarly to previous studies, head twitches were scored as counts every 2 min by observers blinded to treatments and genotypes.
# GFP-tagged TrkB Y433F = biological target: T1, GFP-tagged TrkB Y433F (Rattus norvegicus, UniProt Q63604, Y433F); test: Microscale thermophoresis (MST) in HEK293T lysates; type: binding
# T1 construct: expressed in transfected cells; host or cells: HEK293T
# T1 sequence (Q63604 32-821 Y433F): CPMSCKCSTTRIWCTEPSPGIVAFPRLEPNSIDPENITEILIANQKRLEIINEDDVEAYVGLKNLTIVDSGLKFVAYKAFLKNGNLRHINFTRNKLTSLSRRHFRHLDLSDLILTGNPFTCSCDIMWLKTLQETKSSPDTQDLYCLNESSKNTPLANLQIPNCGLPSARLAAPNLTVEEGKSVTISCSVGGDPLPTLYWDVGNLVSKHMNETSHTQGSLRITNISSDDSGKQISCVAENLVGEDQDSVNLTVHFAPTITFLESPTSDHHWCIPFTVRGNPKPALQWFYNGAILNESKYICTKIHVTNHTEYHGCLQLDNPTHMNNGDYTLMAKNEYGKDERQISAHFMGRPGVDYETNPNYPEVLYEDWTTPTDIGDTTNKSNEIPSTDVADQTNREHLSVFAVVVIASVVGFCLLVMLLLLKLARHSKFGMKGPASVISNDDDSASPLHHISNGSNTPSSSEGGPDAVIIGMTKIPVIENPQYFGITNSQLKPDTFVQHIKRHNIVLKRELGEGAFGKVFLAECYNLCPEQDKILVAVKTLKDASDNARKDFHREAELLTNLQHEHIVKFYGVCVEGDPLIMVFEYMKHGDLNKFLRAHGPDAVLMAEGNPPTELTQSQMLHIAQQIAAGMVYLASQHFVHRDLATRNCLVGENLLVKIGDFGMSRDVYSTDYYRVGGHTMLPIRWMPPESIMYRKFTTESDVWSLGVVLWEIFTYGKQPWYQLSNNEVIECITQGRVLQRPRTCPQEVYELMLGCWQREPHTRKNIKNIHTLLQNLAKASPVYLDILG
# Experimental: (§1) MST experiments were performed using the Monolith NT.115 (Blue/Red) instrument (NanoTemper Technologies). Lysates of HEK293T cells expressing GFP-tagged TrkB (WT, Y433F, TrkA.TM) were lysed, vortexed, sonicated and centrifuged 24 h after transient transfection and used as a source of fluorescently labeled TrkB, similarly to previously described protocols[11],[45]–[47]. The advantage of this approach is the possibility of studying the proteins in close-to-native conditions. However, the presence of other proteins, lipids, nucleic acids and other components of crude cell lysates can alter the diffusion of biomolecules and therefore binding affinities. High viscosity and background signal typically results in the affinity values being orders of magnitude […] than those of more traditional binding assays. […] The measurements were performed in premium coated capillaries (NanoTemper Technologies, MO-K025) using a LED source with 470 nm and 50% infrared-laser power at 25 °C. Analysis was performed using MO Affinity Analysis 2.3. Results were fitted to specific binding with Hill slope equations from GraphPad Prism 9.2.
# GFP-tagged TrkA.TM = test: Microscale thermophoresis (MST) in HEK293T lysates; type: binding
# Experimental: as §1
# eGFP-tagged TrkB (WT) = biological target: T2, eGFP-tagged TrkB (WT) (Rattus norvegicus, UniProt Q63604); test: Microscale thermophoresis (MST) in HEK293T lysates; type: binding
# T2 construct: expressed in transfected cells; host or cells: HEK293T
# T2 sequence (Q63604 32-821): as the sequence (Q63604 32-821 Y433F) above, with F402Y counted along it
# Experimental: as §1
compound,measurement,setting,value
"CCN(CC)C(=O)C1C=C2c3cccc4[nH]cc(c34)CC2N(C)C1 (stereo not shown) [LSD, lysergic acid diethylamide]",6h: Mean (Sholl analysis),[1]; distance from soma 15 µm,4.941
same,6h: Mean (Sholl analysis),[1]; distance from soma 20 µm,4.765
same,"Mean, figure 7d (head-twitch response)",mice; M100907:LSD group,0.4
same,"Mean, figure 7d (head-twitch response)",mice; Vehicle:LSD group,33
same,"Mean, figure 7c (head-twitch response)",mice; WT mice,76.8
same,"Mean Diff., figure 7c, WT:Saline vs. WT:LSD","mice; WT mice, saline minus LSD, Bonferroni's multiple comparisons test",-73.8
same,"Mean, figure 7c (head-twitch response)",mice; Y433F+/- mice,67.8
same,"Mean Diff., figure 7c, Y433F+/-:Saline vs. Y433F+/-:LSD","mice; Y433F+/- mice, saline minus LSD, Bonferroni's multiple comparisons test",-63.2
same,head-twitch response,mice; Y433F^+/− mice treated with LSD 0.1 mg kg^−1,occurs normally
same,"Head-twitch response, Mean","mice; ext fig 7c, TrkB.WT mice, Time (min) 2",2.6
same,"Head-twitch response, Mean","mice; ext fig 7c, TrkB.WT mice, Time (min) 4",6.4
same,"Head-twitch response, Mean","mice; ext fig 7c, TrkB.WT mice, Time (min) 6",10.6
same,"Head-twitch response, Mean","mice; ext fig 7c, TrkB.WT mice, Time (min) 8",7.8
same,"Head-twitch response, Mean","mice; ext fig 7c, TrkB.WT mice, Time (min) 10",6.6
same,"Head-twitch response, Mean","mice; ext fig 7c, TrkB.WT mice, Time (min) 12",7.6
same,"Head-twitch response, Mean","mice; ext fig 7c, TrkB.WT mice, Time (min) 14",5.4
same,"Head-twitch response, Mean","mice; ext fig 7c, TrkB.WT mice, Time (min) 16",4.8
same,"Head-twitch response, Mean","mice; ext fig 7c, TrkB.WT mice, Time (min) 18",3.6
same,"Head-twitch response, Mean","mice; ext fig 7c, TrkB.WT mice, Time (min) 20",4
same,"Head-twitch response, Mean","mice; ext fig 7c, TrkB.WT mice, Time (min) 22",4.6
same,"Head-twitch response, Mean","mice; ext fig 7c, TrkB.WT mice, Time (min) 24",4.8
same,"Head-twitch response, Mean","mice; ext fig 7c, TrkB.WT mice, Time (min) 26",2
same,"Head-twitch response, Mean","mice; ext fig 7c, TrkB.WT mice, Time (min) 28",3.2
same,"Head-twitch response, Mean","mice; ext fig 7c, TrkB.WT mice, Time (min) 30",2.6
same,"Head-twitch response, Mean","mice; ext fig 7c, TrkB.Y433F mice, Time (min) 2",3
same,"Head-twitch response, Mean","mice; ext fig 7c, TrkB.Y433F mice, Time (min) 4",6.2
same,"Head-twitch response, Mean","mice; ext fig 7c, TrkB.Y433F mice, Time (min) 6",9.4
same,"Head-twitch response, Mean","mice; ext fig 7c, TrkB.Y433F mice, Time (min) 8",8.8
same,"Head-twitch response, Mean","mice; ext fig 7c, TrkB.Y433F mice, Time (min) 10",6.8
same,"Head-twitch response, Mean","mice; ext fig 7c, TrkB.Y433F mice, Time (min) 12",6.2
same,"Head-twitch response, Mean","mice; ext fig 7c, TrkB.Y433F mice, Time (min) 14",4.2
same,"Head-twitch response, Mean","mice; ext fig 7c, TrkB.Y433F mice, Time (min) 16",5
same,"Head-twitch response, Mean","mice; ext fig 7c, TrkB.Y433F mice, Time (min) 18",3.2
same,"Head-twitch response, Mean","mice; ext fig 7c, TrkB.Y433F mice, Time (min) 20",2.6
same,"Head-twitch response, Mean","mice; ext fig 7c, TrkB.Y433F mice, Time (min) 22",3
same,"Head-twitch response, Mean","mice; ext fig 7c, TrkB.Y433F mice, Time (min) 24",3.2
same,"Head-twitch response, Mean","mice; ext fig 7c, TrkB.Y433F mice, Time (min) 26",2.2
same,"Head-twitch response, Mean","mice; ext fig 7c, TrkB.Y433F mice, Time (min) 28",1.8
same,"Head-twitch response, Mean","mice; ext fig 7c, TrkB.Y433F mice, Time (min) 30",2.4
same,"Head-twitch response, Mean","mice; ext fig 7d, Time (min) 2",0.2
same,"Head-twitch response, Mean","mice; ext fig 7d, Time (min) 4",2.2
same,"Head-twitch response, Mean","mice; ext fig 7d, Time (min) 6",2.6
same,"Head-twitch response, Mean","mice; ext fig 7d, Time (min) 8",4.2
same,"Head-twitch response, Mean","mice; ext fig 7d, Time (min) 10",3
same,"Head-twitch response, Mean","mice; ext fig 7d, Time (min) 12",3.8
same,"Head-twitch response, Mean","mice; ext fig 7d, Time (min) 14",3.2
same,"Head-twitch response, Mean","mice; ext fig 7d, Time (min) 16",2.2
same,"Head-twitch response, Mean","mice; ext fig 7d, Time (min) 18",2.4
same,"Head-twitch response, Mean","mice; ext fig 7d, Time (min) 20",1.8
same,"Head-twitch response, Mean","mice; ext fig 7d, Time (min) 22",1.2
same,"Head-twitch response, Mean","mice; ext fig 7d, Time (min) 24",2.2
same,"Head-twitch response, Mean","mice; ext fig 7d, Time (min) 26",1.4
same,"Head-twitch response, Mean","mice; ext fig 7d, Time (min) 28",1.8
same,"Head-twitch response, Mean","mice; ext fig 7d, Time (min) 30",0.8
same,"Mean Diff., figure 7d, Vehicle:Saline vs. Vehicle:LSD","mice; saline minus LSD, Bonferroni's multiple comparisons test",-30.6
same,"Mean Diff., figure 7d, M100907:Saline vs. M100907:LSD","mice; with M100907, saline minus LSD, Bonferroni's multiple comparisons test",-0.2
same,"Bmax (best-fit, 1c/1d)",GFP-tagged TrkB Y433F; MST Y433F,~ 430.4
same,"h (best-fit, 1c/1d)",GFP-tagged TrkB Y433F; MST Y433F,1.157
same,binding by MST,GFP-tagged TrkB Y433F; Y433F,but not to Y433F
same,"Bmax (best-fit, 1c/1d)",GFP-tagged TrkA.TM,~ 12873
same,"h (best-fit, 1c/1d)",GFP-tagged TrkA.TM,1.641
same,"h (best-fit, 1c/1d)",eGFP-tagged TrkB (WT); MST WT,0.8476
same,"Bmax (best-fit, 1c/1d)","eGFP-tagged TrkB (WT); MST WT, fit ambiguous",~ 566372
same,binding by MST,eGFP-tagged TrkB (WT); native (WT) TrkB,directly bind to native TrkB
